{"source": "ChEMBL document CHEMBL1201862", "about": "“PubChem BioAssay data set” (2004)", "key": {"[1]": {"biological_target": "Intestinal-type alkaline phosphatase (Mus musculus, UniProt P24822)", "sequence (P24822 whole entry)": "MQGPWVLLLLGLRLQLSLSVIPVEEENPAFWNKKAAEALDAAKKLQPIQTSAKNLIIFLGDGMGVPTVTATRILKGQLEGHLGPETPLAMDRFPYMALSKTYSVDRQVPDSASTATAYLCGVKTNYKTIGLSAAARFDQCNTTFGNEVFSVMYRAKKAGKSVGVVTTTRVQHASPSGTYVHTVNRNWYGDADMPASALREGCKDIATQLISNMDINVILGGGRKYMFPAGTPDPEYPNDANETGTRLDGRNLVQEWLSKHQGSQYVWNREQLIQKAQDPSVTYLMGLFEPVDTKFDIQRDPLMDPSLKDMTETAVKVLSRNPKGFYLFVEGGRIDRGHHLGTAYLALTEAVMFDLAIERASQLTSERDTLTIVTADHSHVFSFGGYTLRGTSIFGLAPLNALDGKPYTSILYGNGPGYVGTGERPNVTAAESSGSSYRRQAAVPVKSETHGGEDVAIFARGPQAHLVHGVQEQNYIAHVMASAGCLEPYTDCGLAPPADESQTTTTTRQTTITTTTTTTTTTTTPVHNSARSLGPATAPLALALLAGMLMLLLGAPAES", "assay": "PubChem AID 488785", "format": "functional"}, "[2]": {"biological_target": "T1, Long-chain-fatty-acid--AMP ligase FadD28 (Mycobacterium tuberculosis, UniProt P9WQ59)", "T1 sequence (P9WQ59 whole entry)": "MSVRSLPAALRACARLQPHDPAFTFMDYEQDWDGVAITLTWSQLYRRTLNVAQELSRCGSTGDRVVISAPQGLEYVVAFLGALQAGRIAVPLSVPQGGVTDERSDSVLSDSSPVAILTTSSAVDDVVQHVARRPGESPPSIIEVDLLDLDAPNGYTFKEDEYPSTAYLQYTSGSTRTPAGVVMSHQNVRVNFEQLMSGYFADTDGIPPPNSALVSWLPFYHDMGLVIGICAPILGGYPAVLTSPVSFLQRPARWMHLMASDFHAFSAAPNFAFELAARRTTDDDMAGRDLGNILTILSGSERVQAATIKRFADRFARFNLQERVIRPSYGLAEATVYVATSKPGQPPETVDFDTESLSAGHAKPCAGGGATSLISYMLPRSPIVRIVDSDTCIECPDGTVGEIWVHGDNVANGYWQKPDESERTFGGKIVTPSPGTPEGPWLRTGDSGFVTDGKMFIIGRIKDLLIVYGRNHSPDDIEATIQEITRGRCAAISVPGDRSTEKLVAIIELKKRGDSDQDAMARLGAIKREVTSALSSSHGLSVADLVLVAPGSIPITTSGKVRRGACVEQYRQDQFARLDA", "assay": "Fluorescence polarization aasay to screen for inhibitors that compete for the binding of FadD28 to a bisubstrate Measured in Biochemical System Using Plate Reader - 2147-01_Inhibitor_Dose_CherryPick_Activity.", "format": "functional, Mycobacterium tuberculosis H37Rv"}, "[3]": {"biological_target": "Intestinal-type alkaline phosphatase (Homo sapiens, UniProt P09923)", "sequence (P09923 whole entry)": "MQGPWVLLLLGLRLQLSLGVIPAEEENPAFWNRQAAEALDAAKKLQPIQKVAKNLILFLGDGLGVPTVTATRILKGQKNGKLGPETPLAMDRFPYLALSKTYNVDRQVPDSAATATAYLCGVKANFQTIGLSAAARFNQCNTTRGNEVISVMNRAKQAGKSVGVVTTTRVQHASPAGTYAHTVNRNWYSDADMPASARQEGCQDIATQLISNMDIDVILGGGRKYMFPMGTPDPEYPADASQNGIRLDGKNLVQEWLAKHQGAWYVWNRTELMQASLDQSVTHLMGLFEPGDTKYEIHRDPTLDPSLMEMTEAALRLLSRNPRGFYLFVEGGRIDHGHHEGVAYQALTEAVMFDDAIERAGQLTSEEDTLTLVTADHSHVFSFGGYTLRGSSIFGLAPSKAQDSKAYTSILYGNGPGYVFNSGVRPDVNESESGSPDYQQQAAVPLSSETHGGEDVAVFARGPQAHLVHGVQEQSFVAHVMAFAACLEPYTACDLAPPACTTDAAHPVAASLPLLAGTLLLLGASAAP", "assay": "inhibition of human intestinal alkaline phosphatase – biochemical, dose response (AID 488876)", "format": "functional"}, "[4]": {"biological_target": "T2, Alkaline phosphatase, tissue-nonspecific isozyme (Homo sapiens, UniProt P05186)", "T2 sequence (P05186 whole entry)": "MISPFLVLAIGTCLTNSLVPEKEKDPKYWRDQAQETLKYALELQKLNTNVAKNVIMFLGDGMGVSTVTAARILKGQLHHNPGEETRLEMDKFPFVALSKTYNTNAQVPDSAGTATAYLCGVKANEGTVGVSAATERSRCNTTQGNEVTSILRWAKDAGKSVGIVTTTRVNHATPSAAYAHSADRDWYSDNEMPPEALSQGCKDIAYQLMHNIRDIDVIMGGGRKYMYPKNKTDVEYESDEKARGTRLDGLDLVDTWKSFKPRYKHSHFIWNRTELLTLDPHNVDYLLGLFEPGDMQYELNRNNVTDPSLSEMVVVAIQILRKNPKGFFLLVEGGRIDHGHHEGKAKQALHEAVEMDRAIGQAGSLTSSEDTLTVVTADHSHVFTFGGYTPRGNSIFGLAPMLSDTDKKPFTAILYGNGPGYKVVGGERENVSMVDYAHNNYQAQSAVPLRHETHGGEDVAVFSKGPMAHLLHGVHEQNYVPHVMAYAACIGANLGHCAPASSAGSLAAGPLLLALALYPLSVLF", "assay": "TNAP enzyme inhibition by screening hits, dose response, selectivity assay for mouse IAP inhibitor project, biochemical, human TNAP, uHTS hits (AID 488906)", "format": "functional"}, "[5]": {"assay": "Luminescence Cell-Based Dose Retest to Confirm Inhibitors of Cancer Stem Cells. [Related pubchem assays (depositor defined):AID2717, AID2721]", "format": "functional", "settings": "Homo sapiens"}, "Vero": {"test_system": "Vero", "assay": "cells", "format": "functional", "settings": "Chlorocebus sabaeus"}, "[6]": {"assay": "viability loss of HMLE_sh_eGFP cells – cell-based, luminescence, counter-screen for HMLE_sh_ECad selective toxicity project, dose response (AID 463074);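 further: HMLE human mammary epithelial cells expressing control shRNA against eGFP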", "format": "functional, Homo sapiens"}, "[7]": {"biological_target": "Disintegrin and metalloproteinase domain-containing protein 17 (Homo sapiens, UniProt P78536)", "sequence (P78536 whole entry, the tested form may be a part)": "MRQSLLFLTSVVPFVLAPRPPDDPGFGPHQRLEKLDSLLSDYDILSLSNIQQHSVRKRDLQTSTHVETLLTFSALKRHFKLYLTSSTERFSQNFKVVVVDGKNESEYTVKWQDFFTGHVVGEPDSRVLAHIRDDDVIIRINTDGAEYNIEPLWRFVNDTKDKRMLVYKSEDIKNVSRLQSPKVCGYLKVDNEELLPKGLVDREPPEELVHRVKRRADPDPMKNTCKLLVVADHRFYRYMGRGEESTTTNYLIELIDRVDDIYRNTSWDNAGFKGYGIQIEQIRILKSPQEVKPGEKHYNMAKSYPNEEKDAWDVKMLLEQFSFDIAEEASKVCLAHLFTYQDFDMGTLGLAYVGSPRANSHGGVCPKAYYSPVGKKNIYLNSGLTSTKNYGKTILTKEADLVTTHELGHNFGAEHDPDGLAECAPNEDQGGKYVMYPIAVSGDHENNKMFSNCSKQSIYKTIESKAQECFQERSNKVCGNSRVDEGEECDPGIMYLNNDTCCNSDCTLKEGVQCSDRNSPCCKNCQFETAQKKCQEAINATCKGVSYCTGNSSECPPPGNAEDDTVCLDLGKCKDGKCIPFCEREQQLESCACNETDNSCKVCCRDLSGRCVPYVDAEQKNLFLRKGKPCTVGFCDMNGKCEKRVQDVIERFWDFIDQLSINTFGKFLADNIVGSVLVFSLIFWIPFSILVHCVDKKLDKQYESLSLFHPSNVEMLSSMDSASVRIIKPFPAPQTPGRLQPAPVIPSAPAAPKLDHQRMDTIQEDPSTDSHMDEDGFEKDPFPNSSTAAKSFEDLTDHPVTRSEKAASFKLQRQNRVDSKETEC", "assay": "inhibition of ADAM17 substrate cleavage – biochemical, quenched FRET substrate, counter-screen for ADAM10 exosite inhibitor project, dose response (AID 743253)"}, "[8]": {"assay": "potency of ADAM10 substrate cleavage blockers – biochemical, QFRET, dose response (AID 743254);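 further: ADAM10 enzyme with the DM2 quenched FRET peptide as substrate; EDANS fluorescence gain as the protease cuts the substrate; inhibitor potency against ADAM10 proteolytic activity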"}, "HEK293 [9]": {"test_system": "HEK293", "assay": "cells", "settings": "Homo sapiens"}, "HEK293 [10]": {"test_system": "HEK293", "assay": "cells", "settings": "Homo sapiens", "remark": "listed apart in the source"}, "[11]": {"assay": "blockers of HIV-1 envelope-mediated cell-cell fusion – cherry-pick, dose response (AID 652057)", "format": "functional, cell-based"}, "[12]": {"biological_target": "T3, Short transient receptor potential channel 4 (Mus musculus, UniProt Q9QUQ5)", "T3 sequence (Q9QUQ5 whole entry)": "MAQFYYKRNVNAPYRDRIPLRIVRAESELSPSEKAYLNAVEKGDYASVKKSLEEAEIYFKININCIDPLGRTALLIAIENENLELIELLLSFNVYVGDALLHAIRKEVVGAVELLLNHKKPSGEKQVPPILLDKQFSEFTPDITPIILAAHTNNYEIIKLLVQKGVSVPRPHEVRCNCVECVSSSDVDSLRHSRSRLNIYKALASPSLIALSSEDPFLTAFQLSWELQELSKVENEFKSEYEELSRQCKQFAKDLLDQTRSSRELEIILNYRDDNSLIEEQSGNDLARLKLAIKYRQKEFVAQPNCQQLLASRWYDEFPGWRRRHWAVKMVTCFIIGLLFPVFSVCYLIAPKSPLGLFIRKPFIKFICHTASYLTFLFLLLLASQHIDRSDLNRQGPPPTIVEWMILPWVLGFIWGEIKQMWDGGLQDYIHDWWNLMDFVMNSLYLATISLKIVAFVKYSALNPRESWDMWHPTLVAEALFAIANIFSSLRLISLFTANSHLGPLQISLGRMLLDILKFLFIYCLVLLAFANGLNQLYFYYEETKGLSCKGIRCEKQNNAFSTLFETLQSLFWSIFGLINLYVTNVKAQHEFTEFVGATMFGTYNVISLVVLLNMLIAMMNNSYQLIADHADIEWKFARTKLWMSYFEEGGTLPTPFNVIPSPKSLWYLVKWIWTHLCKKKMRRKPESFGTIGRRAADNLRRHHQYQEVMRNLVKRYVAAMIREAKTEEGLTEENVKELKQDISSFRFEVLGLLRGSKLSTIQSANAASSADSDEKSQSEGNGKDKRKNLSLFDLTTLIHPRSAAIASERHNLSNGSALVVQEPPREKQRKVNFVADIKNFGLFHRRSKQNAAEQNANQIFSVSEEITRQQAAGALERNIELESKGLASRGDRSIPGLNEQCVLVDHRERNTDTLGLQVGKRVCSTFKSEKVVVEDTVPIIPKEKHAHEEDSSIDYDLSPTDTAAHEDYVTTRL", "assay": "calcium entry via TRPC4 opening agents – cell-based, HEK293 TRPC4/mu-opioid, Fluo-4 calcium, dose response (AID 434937)", "format": "functional"}, "Mu-type opioid receptor": {"biological_target": "Mu-type opioid receptor (Homo sapiens, UniProt P35372)", "sequence (P35372 whole entry)": "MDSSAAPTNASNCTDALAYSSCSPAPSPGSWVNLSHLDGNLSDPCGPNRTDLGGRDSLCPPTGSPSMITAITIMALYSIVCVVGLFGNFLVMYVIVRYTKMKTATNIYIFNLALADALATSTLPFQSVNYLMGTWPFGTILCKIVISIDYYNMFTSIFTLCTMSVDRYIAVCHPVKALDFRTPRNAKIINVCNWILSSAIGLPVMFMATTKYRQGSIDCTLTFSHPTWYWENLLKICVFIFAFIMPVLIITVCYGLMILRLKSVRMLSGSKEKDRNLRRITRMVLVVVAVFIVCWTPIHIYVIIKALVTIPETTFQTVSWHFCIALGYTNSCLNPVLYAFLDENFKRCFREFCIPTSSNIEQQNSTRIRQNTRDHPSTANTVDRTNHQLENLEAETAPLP", "assay": "(§1) Counterscreen for agonists of heterodimerization of the mu 1 (OPRM1) and delta 1 (OPRD1) opioid receptors: Luminescence-based cell-based high throughput dose response assay to identify agonists of OPRM1 homodimerization.", "format": "functional"}, "[13]": {"biological_target": "5-hydroxytryptamine receptor 5A (Homo sapiens, UniProt P47898)", "sequence (P47898 whole entry)": "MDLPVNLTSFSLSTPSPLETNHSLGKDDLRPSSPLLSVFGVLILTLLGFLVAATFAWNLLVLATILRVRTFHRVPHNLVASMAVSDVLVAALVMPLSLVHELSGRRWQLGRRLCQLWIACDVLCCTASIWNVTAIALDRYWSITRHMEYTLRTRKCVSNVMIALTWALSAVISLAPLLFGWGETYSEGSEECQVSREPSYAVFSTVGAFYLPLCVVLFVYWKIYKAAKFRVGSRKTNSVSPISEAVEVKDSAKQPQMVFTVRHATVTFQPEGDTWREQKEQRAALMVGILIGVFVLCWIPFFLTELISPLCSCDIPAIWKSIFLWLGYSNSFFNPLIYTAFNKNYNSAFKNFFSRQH", "assay": "Counterscreen for agonists of OPRM1-OPRD1 heterodimerization: luminescence-based cell-based high throughput dose response assay to identify agonists of 5-hydroxytryptamine (serotonin) 5A receptor (HTR5A). [Related pubchem assays (depositor defined):AID504326, AID504355, AID504692, AID504904, AID504905]", "format": "functional"}, "[14]": {"assay": "off-target signal loss in HeLa-CEM21 co-culture – HeLa F-luc CTL cells, cherry-picked, counter-screen for HIV-1 Env fusion inhibitor project, dose response (AID 652040)", "format": "functional, cell-based"}, "[15]": {"biological_target": "Delta-type opioid receptor (Homo sapiens, UniProt P41143)", "sequence (P41143 whole entry)": "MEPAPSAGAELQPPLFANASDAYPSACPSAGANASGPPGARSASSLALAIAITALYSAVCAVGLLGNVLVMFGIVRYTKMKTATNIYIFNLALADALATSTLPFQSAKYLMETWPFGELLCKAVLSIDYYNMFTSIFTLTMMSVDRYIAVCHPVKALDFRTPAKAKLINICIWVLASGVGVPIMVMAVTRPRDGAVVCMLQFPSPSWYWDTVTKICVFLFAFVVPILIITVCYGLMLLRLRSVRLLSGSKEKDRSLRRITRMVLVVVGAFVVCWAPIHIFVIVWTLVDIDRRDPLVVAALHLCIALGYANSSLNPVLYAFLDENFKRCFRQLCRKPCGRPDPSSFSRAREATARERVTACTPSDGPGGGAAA", "assay": "as §1, with “of OPRD1” for “of OPRM1”, “homodimerization. [Related pubchem assays (depositor defined):AID504326, AID504355, AID504692, AID504904, AID504905]” for “homodimerization.”", "format": "functional"}, "[16]": {"assay": "HIV-1 AD8 envelope cell-cell fusion blockers – cherry-pick, dose response (AID 652062)", "format": "functional, cell-based"}, "[17]": {"assay": "blockers of HIV-1 ZM109 envelope-driven cell-cell fusion – HeLa effector, CEM target cells, luciferase, cherry-pick, dose response (AID 652058)", "format": "functional, cell-based"}}, "note": "Calls of active or inactive are those of the source."}
{"smiles": "O=C(NN1C(=O)/C(=C/c2ccc(O)c(O)c2)SC1=S)c1ccccc1", "values": [{"measurement": "IC50", "setting": "[1]", "value": "1.28 µM (active)"}, {"measurement": "AC50", "setting": "[2]", "value": "1.41 µM (active)"}, {"measurement": "IC50", "setting": "[3]", "value": "> 100 µM (inactive)"}, {"measurement": "IC50", "setting": "[4]", "value": "20 µM (active)"}]}
{"smiles": "Cc1cc(N/N=C/c2ccc(Cl)cc2Cl)nc(NCc2ccccc2)n1", "values": [{"measurement": "AC50", "setting": "[5]", "value": "3.49 µM (active)"}, {"measurement": "CC50", "setting": "Vero", "value": "> 25 µM (active)"}, {"measurement": "AC50", "setting": "[6]", "value": "32.2 µM (active)"}]}
{"smiles": "O=S(=O)(NCC(Nc1ccc(Cl)cc1)c1ccccc1)c1ccc(Cl)cc1", "note": "(centres undefined)", "values": [{"measurement": "IC50", "setting": "[7]", "value": "> 69.5 µM (inactive)"}, {"measurement": "IC50", "setting": "[8]", "value": "11.7 µM (inactive)"}, {"measurement": "EC50", "setting": "HEK293 [9]", "value": "> 59.7 µM (inactive)"}, {"measurement": "EC50", "setting": "HEK293 [10]", "value": "> 59.7 µM (inactive)"}]}
{"smiles": "Cc1ccc(C)c(-n2cc(CNCCCn3cccn3)c(-c3ccccc3)n2)c1", "values": [{"measurement": "AC50", "setting": "[11]", "value": "1.28 µM (active)"}, {"measurement": "EC50", "setting": "[12]", "value": "1.5 µM (active)"}, {"measurement": "EC50", "setting": "Mu-type opioid receptor", "value": "10.1 µM (inactive)"}, {"measurement": "EC50", "setting": "[13]", "value": "> 92.5 µM (inactive)"}, {"measurement": "AC50", "setting": "[14]", "value": "1.82 µM (active)"}, {"measurement": "EC50", "setting": "[15]", "value": "> 92.5 µM (inactive)"}, {"measurement": "AC50", "setting": "[16]", "value": "2.56 µM (active)"}, {"measurement": "AC50", "setting": "[17]", "value": "0.631 µM (active)"}]}
